Reference: ChEMBL document CHEMBL2311273, “Discovery of potent, selective multidrug and toxin extrusion transporter 1 (MATE1, SLC47A1) inhibitors through prescription drug profiling and computational modeling” (J Med Chem, 2013)

Columns and labels:
[1] = biological target: T1, Solute carrier family 22 member 2 (Homo sapiens, UniProt O15244); test: Inhibition of human OCT2-mediated ASP+ uptake expressed in HEK293 cells after 3 mins by fluorescence assay; format: cell-based
T1 sequence (O15244 whole entry): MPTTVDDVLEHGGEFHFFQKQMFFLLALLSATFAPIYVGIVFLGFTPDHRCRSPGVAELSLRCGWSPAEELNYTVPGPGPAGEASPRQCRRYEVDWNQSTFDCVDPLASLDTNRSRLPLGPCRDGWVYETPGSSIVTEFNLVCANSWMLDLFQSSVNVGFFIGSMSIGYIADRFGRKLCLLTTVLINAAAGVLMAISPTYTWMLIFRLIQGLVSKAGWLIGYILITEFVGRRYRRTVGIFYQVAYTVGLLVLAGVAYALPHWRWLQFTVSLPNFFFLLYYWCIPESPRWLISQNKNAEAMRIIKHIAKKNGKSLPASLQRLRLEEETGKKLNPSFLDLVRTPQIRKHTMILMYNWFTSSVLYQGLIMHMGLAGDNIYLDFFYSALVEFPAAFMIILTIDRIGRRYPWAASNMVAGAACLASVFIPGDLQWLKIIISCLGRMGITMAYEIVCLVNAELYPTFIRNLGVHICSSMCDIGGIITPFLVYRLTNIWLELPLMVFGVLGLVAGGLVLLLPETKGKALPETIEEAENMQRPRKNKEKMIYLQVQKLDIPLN

[2] = biological target: T2, Solute carrier family 22 member 1 (Homo sapiens, UniProt O15245); test: Inhibition of human OCT1-mediated ASP+ uptake expressed in HEK293 cells after 3 mins by fluorescence assay; format: cell-based
T2 sequence (O15245 whole entry): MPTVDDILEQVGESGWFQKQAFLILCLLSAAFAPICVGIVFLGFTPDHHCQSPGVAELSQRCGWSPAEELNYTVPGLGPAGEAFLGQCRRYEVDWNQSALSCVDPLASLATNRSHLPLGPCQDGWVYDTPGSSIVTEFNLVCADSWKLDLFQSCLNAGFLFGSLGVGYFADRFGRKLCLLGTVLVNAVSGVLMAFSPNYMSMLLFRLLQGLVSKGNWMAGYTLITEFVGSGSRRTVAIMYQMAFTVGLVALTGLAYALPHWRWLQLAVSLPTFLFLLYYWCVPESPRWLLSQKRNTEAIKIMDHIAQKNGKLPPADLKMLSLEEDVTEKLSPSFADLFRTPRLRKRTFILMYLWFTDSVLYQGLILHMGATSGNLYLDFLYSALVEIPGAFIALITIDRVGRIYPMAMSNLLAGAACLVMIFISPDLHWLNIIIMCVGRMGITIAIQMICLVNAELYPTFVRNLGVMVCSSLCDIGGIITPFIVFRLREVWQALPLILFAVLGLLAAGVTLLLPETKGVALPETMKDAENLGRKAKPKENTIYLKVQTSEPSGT

[3] = biological target: T3, Solute carrier family 22 member 3 (Homo sapiens, UniProt O75751); test: Inhibition of human OCT3-mediated ASP+ uptake expressed in HEK293 cells after 3 mins by fluorescence assay; format: cell-based
T3 sequence (O75751 whole entry): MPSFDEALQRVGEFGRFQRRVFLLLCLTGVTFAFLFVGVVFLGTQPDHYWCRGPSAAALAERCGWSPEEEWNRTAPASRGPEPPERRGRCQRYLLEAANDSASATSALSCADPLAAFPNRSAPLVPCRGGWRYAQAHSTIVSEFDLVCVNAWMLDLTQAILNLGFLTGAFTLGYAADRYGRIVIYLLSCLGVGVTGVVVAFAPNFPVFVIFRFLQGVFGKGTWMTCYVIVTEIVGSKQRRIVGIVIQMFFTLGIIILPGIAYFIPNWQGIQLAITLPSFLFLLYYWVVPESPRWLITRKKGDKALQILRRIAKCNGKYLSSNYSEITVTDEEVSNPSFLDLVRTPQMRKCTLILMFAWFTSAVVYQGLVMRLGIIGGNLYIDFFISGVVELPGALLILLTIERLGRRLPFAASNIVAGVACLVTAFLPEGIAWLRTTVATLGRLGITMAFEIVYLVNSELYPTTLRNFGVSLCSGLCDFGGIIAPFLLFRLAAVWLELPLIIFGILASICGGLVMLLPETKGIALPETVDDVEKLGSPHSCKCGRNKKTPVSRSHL

[4] = biological target: T4, Multidrug and toxin extrusion protein 1 (Homo sapiens, UniProt Q96FL8); test: (§1) Inhibition of human MATE1-mediated ASP+ uptake expressed in HEK293 cells at 20 uM after 1.5 mins by fluorescence assay; format: cell-based; settings: hek293, […], 20 µM
T4 sequence (Q96FL8 whole entry): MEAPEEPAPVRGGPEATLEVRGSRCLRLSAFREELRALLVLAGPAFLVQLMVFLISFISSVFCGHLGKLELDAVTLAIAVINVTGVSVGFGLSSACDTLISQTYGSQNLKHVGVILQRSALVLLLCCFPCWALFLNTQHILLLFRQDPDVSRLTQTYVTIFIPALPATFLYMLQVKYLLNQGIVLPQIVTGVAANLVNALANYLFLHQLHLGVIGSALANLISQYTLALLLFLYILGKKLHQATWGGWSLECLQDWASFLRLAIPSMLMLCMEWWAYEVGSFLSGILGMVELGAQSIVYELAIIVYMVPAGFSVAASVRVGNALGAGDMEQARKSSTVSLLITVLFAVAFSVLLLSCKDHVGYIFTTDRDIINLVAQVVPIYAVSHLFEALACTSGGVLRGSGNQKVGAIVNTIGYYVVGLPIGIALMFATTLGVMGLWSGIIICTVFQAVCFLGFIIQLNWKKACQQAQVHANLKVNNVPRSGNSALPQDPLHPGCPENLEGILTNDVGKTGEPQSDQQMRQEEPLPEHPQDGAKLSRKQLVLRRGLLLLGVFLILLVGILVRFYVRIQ

[5] = biological target: T5, Multidrug and toxin extrusion protein 2 (Homo sapiens, UniProt Q86VL8); test: Inhibition of human MATE2K-mediated ASP+ uptake expressed in HEK293 cells after 1.5 mins by fluorescence assay; format: cell-based
T5 sequence (Q86VL8 whole entry): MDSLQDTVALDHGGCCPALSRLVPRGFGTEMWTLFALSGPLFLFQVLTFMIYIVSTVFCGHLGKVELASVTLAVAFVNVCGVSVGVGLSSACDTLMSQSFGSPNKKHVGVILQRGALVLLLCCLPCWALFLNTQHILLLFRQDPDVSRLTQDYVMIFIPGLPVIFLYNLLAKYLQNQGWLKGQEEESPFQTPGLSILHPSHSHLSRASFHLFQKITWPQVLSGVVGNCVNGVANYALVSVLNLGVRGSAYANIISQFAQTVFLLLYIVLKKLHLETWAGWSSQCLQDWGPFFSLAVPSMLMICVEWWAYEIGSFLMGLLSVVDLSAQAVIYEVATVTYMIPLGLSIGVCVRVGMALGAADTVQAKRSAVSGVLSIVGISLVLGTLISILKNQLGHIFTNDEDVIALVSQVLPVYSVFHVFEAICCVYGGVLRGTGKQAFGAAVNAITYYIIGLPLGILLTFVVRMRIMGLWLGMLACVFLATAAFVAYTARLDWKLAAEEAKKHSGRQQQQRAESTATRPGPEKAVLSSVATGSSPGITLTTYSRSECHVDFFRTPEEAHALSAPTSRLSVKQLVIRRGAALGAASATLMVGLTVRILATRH

[6] = biological target: T4, Multidrug and toxin extrusion protein 1; test: Inhibition of human MATE1-mediated ASP+ uptake expressed in HEK293 cells after 1.5 mins by fluorescence assay; format: cell-based
[7] = biological target: T5, Multidrug and toxin extrusion protein 2; test: Inhibition of human MATE2K-mediated ASP+ uptake expressed in HEK293 cells up to 500 uM after 1.5 mins by fluorescence assay; format: cell-based; settings: for INH: human, hek293, […]
[8] = biological target: T6, MATE1 (multidrug and toxin extrusion protein 1) (Homo sapiens, UniProt Q96FL8); test: as §1; format: cell-based; settings: HEK293 cells expressing human MATE1, probe ASP+
T6 sequence (Q96FL8 whole entry): T4 sequence (Q96FL8 whole entry)

[9] = Cmax in iv dosed human; format: ADME, organism-based; design: route intravenous; settings: in vivo
[10] = biological target: T4, Multidrug and toxin extrusion protein 1; test: Inhibition of human MATE1-mediated [14]-metformin uptake expressed in polarized MDCK2 cells after 5 mins by liquid scintillation counting analysis; format: cell-based, MDCK-II
[11] = biological target: T4, Multidrug and toxin extrusion protein 1; test: Inhibition of human MATE1-mediated [14]-metformin uptake expressed in HEK293 cells after 1.5 mins by scintillation counting analysis; format: cell-based
[12] = Cmax in human at 40 mg, po after 7 days; format: ADME, organism-based; design: dose 40 mg, route oral; settings: in vivo

| Structure (SMILES) | IC50 [1] | IC50 [2] | IC50 [3] | IC50 [5] | IC50 [6] | other results |
| --- | --- | --- | --- | --- | --- | --- |
| CC(C)(C)NC(=O)[C@@H]1CN(Cc2cccnc2)CCN1C[C@@H](O)C[C@@H](Cc1ccccc1)C(=O)N[C@H]1c2ccccc2C[C@H]1O | 142 µM | 208 µM | > 500 µM | – | – | – |
| Oc1c(Cl)cc(Cl)cc1Sc1cc(Cl)cc(Cl)c1O [BITHIONOL] | 1.9 µM | 3.9 µM | 5.5 µM | 6.6 µM | – | INH [4]: 87% |
| COc1ccccc1OCCNCC(O)COc1cccc2[nH]c3ccccc3c12 (stereo unspecified) [CARVEDILOL] | 7.5 µM | – | – | – | 92.4 µM | INH [7]: Not Active; inhibition at […], 20 µM [8]: 21% |
| [H]/N=C(\N/C(=N/[H])NCCCCCCNC(=N)NC(=N)Nc1ccc(Cl)cc1)Nc1ccc(Cl)cc1 [CHLORHEXIDINE] | 0.4 µM | 0.21 µM | 0.41 µM | 0.5 µM | 0.7 µM | INH [4]: 86% |
| NC(N)=Nc1nc(CSCCC(N)=NS(N)(=O)=O)cs1 [FAMOTIDINE] | 36.1 µM | > 300 µM | 10.7 µM | 36.2 µM | 0.76 µM | – |
| CCc1c2c(nc3ccc(OC(=O)N4CCC(N5CCCCC5)CC4)cc13)-c1cc3c(c(=O)n1C2)COC(=O)[C@]3(O)CC [IRINOTECAN] | 2.7 µM | 20.8 µM | 74.6 µM | – | – | inhibition at […], 20 µM [8]: 49% |
| O=C1c2c(O)ccc(O)c2C(=O)c2c(NCCNCCO)ccc(NCCNCCO)c21 [MITOXANTRONE] | 73.3 µM | 43.9 µM | 60.5 µM | – | – | – |
| Cn1c(NCCN(CCO)CCCc2ccc([N+](=O)[O-])cc2)cc(=O)n(C)c1=O [NIFEKALANT] | 10.3 µM | > 300 µM | 146 µM | – | – | Cmax [9]: 3.43 µM |
| COc1ccc2c(c1OC)C(=O)O[C@@H]2[C@H]1c2c(cc3c(c2OC)OCO3)CCN1C [NOSCAPINE] | 2.6 µM | – | – | – | – | INH [7]: Not Active; inhibition at […], 20 µM [8]: 13.4% |
| Cc1nccn1CC1CCc2c(c3ccccc3n2C)C1=O (stereo unspecified) [ONDANSETRON] | – | > 300 µM | 17.4 µM | – | – | – |
| COc1ccnc(C[S+]([O-])c2nc3ccc(OC(F)F)cc3[nH]2)c1OC (stereo unspecified) [PANTOPRAZOLE] | 1.5 µM | > 500 µM | 137 µM | > 500 µM | 43.2 µM | IC50 [7]: 43.2 µM; IC50 [10]: 2.8 µM; IC50 [11]: 2.8 µM; Cmax [12]: 5.45 µM |
| N=C(N)c1ccc(OCCCCCOc2ccc(C(=N)N)cc2)cc1 [PENTAMIDINE] | 1.2 µM | 22.1 µM | 9.5 µM | – | – | – |
